Experimental findings from patent US12215363B2, “Balanced indels” (Keygene N.V., priority 2017, dated 2025) are described below.

One data set concerns tomato protoplasts. Kind of data set: Recovery of chlorsulfuron resistant calli after transfection of tomato protoplasts. It counts as cell-based, Solanum lycopersicon var Moneyberg. The note with it: ALS1/ALS2 alleles sequenced from chlorsulfuron resistant calli versus alleles seen only in protoplast sequence data. As to the method: (§1) For the protoplast transfections 10 μg of KG9387 and 20 μg of one of the sgRNA expressing plasmids (KG10177, KG10190, KG10191, KG10240) mixed with 500 μL (500000 protoplasts) of the protoplast suspension and 500 μL of PEG solution (400 g/l poly(ethylene glycol) 4000, Sigma-Aldrich #81240; 0.1M Ca(NO3)2) was then added and the transfection was allowed to take place for 20 minutes at room temperature. Control samples were also produced by omitting one or both of the plasmids from the transfection. Then, 10 mL of 0.275 M Ca(NO3)2 solution was added and thoroughly, but gently mixed in. The protoplasts were harvested by centrifugation for 5 minutes at 800 rpm and resuspended in 9M culture medium at a density of 0.5×10^6 per ml and transferred to a 4 cm diameter petri dish and an equal volume of 2% alginate solution (20 g/l Alginate-Na (Sigma-Aldrich #A0682), 0.14 g/l CaCl2.2H2O, 90 g/l mannitol) was added. […]
(§2) Total genomic DNA was isolated from tomato protoplasts (48 hrs post transfection) using the DNeasy Plant Mini Kit (Qiagen). […] After sequencing the reads derived from each sample were processed to identify the number and types of sequence changes present at the target site. […]

Data set [1] relates to ALS1/ALS2 target sequence. Kind of data set: Indel formation at the ALS1/ALS2 target sites in transfected tomato protoplasts (amplicon sequencing, MiSeq). It counts as cell-based, Solanum lycopersicon var Moneyberg. Conditions: genomic DNA 48 hours after transfection. As to the method:
as §1, §2

Turning to “GQVPGGLMIGT: ALS amino acid change from other pairs of indels in the sequence data, not recovered in resistant calli”, in the data set on tomato protoplasts, the “Chlorsulfuron resistance phenotype of the altered ALS allele (in words)” value is “not resistance alleles”. Same read-out and setting: under “GRRGGLIGT: ALS amino acid change from other pairs of indels in the sequence data, not recovered in resistant calli” stands “not resistance alleles”.

B1: KG10240: cassette (SEQ ID NO. 28) expressing all sgRNAs of KG10177, KG10190 and KG10191 separated by tRNA sequences (nucleic acid)
DNA: GGAGTGATCAAAAGTCCCACATCGATCAGGTGATATATAGCAGCTTAGTTTATATAATGATAGAGTCGACATAGCGATTGAACAAAGCACCAGTGGTCTAGTGGTAGAATAGTACCCTGCCACGGTACAGACCCGGGTTCGATTCCCGGCTGGTGCACAAGTGCCGAGGAGGATGATGTTTTAGAGCTAGAAATAGCAAGTTAAAATAAGGCTAGTCCGTTATCAACTTGAAAAAGTGGCACCGAGTCGGTGCAACAAAGCACCAGTGGTCTAGTGGTAGAATAGTACCCTGCCACGGTACAGACCCGGGTTCGATTCCCGGCTGGTGCACATCCTCCTCGGCACTTGACGTTTTAGAGCTAGAAATAGCAAGTTAAAATAAGGCTAGTCCGTTATCAACTTGAAAAAGTGGCACCGAGTCGGTGCAACAAAGCACCAGTGGTCTAGTGGTAGAATAGTACCCTGCCACGGTACAGACCCGGGTTCGATTCCCGGCTGGTGCATTACCGGTCAAGTGCCGAGGGTTTTAGAGCTAGAAATAGCAAGTTAAAATAAGGCTAGTCCGTTATCAACTTGAAAAAGTGGCACCGAGTCGGTGCTTTTTTTCTAGACCCAGCTTTCTTGTACAAAGTTGGCATTACGCT
modifications: KG10240
Turning to B1, the “Sequence reads with indels at ALS1 and ALS2 target sites (in words)” value in data set [1] was “resulted in reads that contained more than one indel”.
